Data from publication PMC8308786, “Discovery and Characterization of a Novel MASTL Inhibitor MKI-2 Targeting MASTL-PP2A in Breast Cancer Cells and Oocytes” (Pharmaceuticals, 2021).
pIC50: −log10 of the molar value.

Molecular target: T1, MASTL (Homo sapiens, UniProt Q96GX5)
T1 construct: recombinant GST-tagged-MASTL
T1 sequence (Q96GX5 1-879): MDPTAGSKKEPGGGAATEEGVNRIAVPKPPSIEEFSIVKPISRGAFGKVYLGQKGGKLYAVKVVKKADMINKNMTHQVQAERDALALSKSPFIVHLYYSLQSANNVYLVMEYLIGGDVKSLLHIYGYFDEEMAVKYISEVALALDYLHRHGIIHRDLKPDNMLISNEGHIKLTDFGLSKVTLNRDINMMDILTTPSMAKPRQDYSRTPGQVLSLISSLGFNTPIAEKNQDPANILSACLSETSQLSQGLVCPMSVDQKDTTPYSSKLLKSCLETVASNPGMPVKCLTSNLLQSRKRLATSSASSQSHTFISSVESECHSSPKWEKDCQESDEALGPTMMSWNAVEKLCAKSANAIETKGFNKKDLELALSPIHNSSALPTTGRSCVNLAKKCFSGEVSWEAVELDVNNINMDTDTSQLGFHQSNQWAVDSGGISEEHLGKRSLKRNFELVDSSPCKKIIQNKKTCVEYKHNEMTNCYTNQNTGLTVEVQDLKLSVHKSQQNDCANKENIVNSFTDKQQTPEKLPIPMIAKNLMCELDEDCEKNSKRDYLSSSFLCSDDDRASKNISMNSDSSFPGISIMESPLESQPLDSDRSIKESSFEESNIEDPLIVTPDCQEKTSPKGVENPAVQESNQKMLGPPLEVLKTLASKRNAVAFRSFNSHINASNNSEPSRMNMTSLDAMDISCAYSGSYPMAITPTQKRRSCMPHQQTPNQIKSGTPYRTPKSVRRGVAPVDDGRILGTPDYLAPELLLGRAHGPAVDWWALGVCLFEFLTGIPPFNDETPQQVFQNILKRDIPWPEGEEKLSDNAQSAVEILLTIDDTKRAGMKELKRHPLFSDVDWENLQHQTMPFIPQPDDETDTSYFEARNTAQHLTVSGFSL
Assay: in vitro kinase assay with recombinant GST-MASTL and His-ENSA substrate; also HTRF KinEASE and ADP-Glo
Assay type: biochemical

In the case of `N#CCc1ccc(Nc2nc(Nc3cc(C4CC4)[nH]n3)c3ccccc3n2)cc1` [#248, 2-(4-((4-((5-cyclopropyl-1H-pyrazol-3-yl)amino)quinazolin-2-yl)amino)phenyl)acetonitrile], the pIC50 was 7.43.
